{"source": "patent EP1873155A1", "about": "“Inhibitors of the HIV integrase enzyme” (PFIZER INC., priority 2004, dated 2005)", "data": [{"system": "RF strain of HIV-1", "test": "HIV-1 cell protection assay (XTT dye reduction)", "assay_type": "cell-based", "conditions": "CEM-SS cells infected with HIV-1 RF, six days, XTT formazan; read-out: EC50", "protocol": "(§1) Example 61: HIV-1 Cell Protection Assay\n(§2) The antiviral activities of potential modulator compounds (test compounds) were determined in HIV-1 cell protection assays using the RF strain of HIV-1, CEM-SS cells, and the XTT dye reduction method (Weislow, O.S. et al., J. Natl. Cancer Inst. 81: 577-586 (1989)). Subject cells were infected with HIV-1 RF virus at an moi of 0.025 to 0.819 or mock infected with medium only and added at 2 x 10^4 cells per well into 96 well plates containing half-log dilutions of test compounds. Six days later, 50 µl of XTT solution (1 mg/ml XTT tetrazolium and […] phenazine methosulfate) were added to the wells and the plates were reincubated for four hours. Viability, as determined by the amount of XTT formazan produced, was quantified spectrophotometrically by absorbance at 450 nm.\n(§3) Data from CPE assays were expressed as the percent of formazan produced in compound-treated cells compared to formazan produced in wells of uninfected, compound-free cells. […] The therapeutic index was calculated by dividing the cytotoxicity (CC50) by the antiviral activity (EC50).", "units": {"EC50": "nM"}, "values": [{"smiles": "O=C1c2ncc3c(ccn3Cc3ccc(F)cc3)c2CCCN1O", "note": "[Example 3, 3-(4-Fluorobenzyl)-7-hydroxy-7,8,9,1 0-tetrahydropyrrolo[3',2':4,5]pyrido[2,3-c]azepin-6(3H)-one]", "EC50": 29}]}, {"system": "RF strain of HIV-1", "test": "HIV-1 cell protection assay (XTT dye reduction)", "assay_type": "cell-based", "conditions": "Human immunodeficiency virus 1, CEM-SS, 144 h", "protocol": "as §1, §2, §3", "units": {"EC50": "nM"}, "values": [{"smiles": "O=C(NCCc1cnccn1)c1cn(Cc2ccc(F)cc2)c2cnc3c(=O)n(O)ccc3c12", "note": "[Example 28, 3-(4-fluorobenzyl)-7-hydroxy-6-oxo-N-(2-pyrazin-2-ylethyl)-6,7-dihydro-3H-pyrrolo[2,3-c]-1,7-naphthyridine-1-carboxamide]", "EC50": 24}]}, {"system": "RF strain of HIV-1", "test": "HIV-1 cell protection assay (XTT dye reduction)", "assay_type": "cell-based", "conditions": "Human immunodeficiency virus 1, CEM-SS, 144 h, CEM-SS cells infected with HIV-1 RF, six days, XTT formazan; read-out: EC50", "protocol": "as §1, §2, §3", "units": {"EC50": "nM"}, "values": [{"smiles": "CCCCCN(C)Cc1cn(Cc2ccc(F)cc2)c2cnc3c(=O)n(O)ccc3c12", "note": "[Example 11, 3-(4-fluorobenzyl)-7-hydroxy-1-{[methyl(pentyl)amino]methyl}-3,7-dihydro-6H-pyrrolo[2,3-c]-1,7-naphthyridin-6-one]", "EC50": 3}, {"smiles": "CCCCc1cc2c(ncc3c2ccn3Cc2ccc(F)cc2)c(=O)n1O", "note": "[Example 46, 8-butyl-3-(4-fluorobenzyl)-7-hydroxy-3,7-dihydro-6H-pyrrolo[2,3-c]-1,7-naphthyridin-6-one]", "EC50": 9.6}, {"smiles": "O=c1c2ncc3c(c(CN4CCN5C[C@H](O)CC5C4)cn3Cc3ccc(F)cc3)c2ccn1O", "note": "(stereo partly drawn) [Example 55, 3-(4-fluorobenzyl)-7-hydroxy-1-{[(7R)-7-hydroxyhexahydropyrrolo[1,2-a]pyrazin-2(1 H)-yl]methyl}-3,7-dihydro-6H-pyrrolo[2,3-c]-1,7-naphthyridin-6-one]", "EC50": 69}, {"smiles": "O=C1CN(S(=O)(=O)c2cn(Cc3ccc(F)cc3)c3cnc4c(=O)n(O)ccc4c23)CCN1", "note": "[Example 22, 3-(4-fluorobenzyl)-7-hydroxy-1-[(3-oxopiperazin-1-yl)sulfonyl]-3,7-dihydro-6H-pyrrolo[2,3-c]-1,7-naphthyridin-6-one]", "EC50": 45}, {"smiles": "O=c1c2ncc3c(c(CN4CCc5ccccc5C4)cn3Cc3ccc(F)cc3)c2ccn1O", "note": "[Example 10, 1-(3,4-dihydroisoquinolin-2(1H)-ylmethyl)-3-(4-fluorobenzyl)-7-hydroxy-3,7-dihydro-6H-pyrrolo[2,3-c]-1,7-naphthyridin-6-one]", "EC50": 0.41}, {"smiles": "Cc1cnc(CNCc2cn(Cc3ccc(F)cc3)c3cnc4c(=O)n(O)ccc4c23)cn1", "note": "[Example 42, 3-(4-fluorobenzyl)-7-hydroxy-1-({[(5-methylpyrazin-2-yl)methyl]amino}methyl)-3,7-dihydro-6H-pyrrolo[2,3-c]-1,7-naphthyridin-6-one]", "EC50": 3}, {"smiles": "COCCOCc1cn(Cc2ccc(F)cc2)c2cnc3c(=O)n(O)ccc3c12", "note": "[Example 36, 3-(4-fluorobenzyl)-7-hydroxy-1-[(2-methoxyethoxy)methyl]-3,7-dihydro-6H-pyrrolo[2,3-c]-1,7-naphthyridin-6-one]", "EC50": 0.4}, {"smiles": "O=c1c2ncc3c(c(S(=O)(=O)NCc4ccc(F)cc4)cn3Cc3ccc(F)cc3)c2ccn1O", "note": "[Example 25, N,3-bis(4-fluorobenzyl)-7-hydroxy-6-oxo-6,7-dihydro-3H-pyrrolo[2,3-c]-1,7-naphthyridine-1-sulfonamide]", "EC50": 160}, {"smiles": "Cc1cc2c(ncc3c2ccn3Cc2ccc(F)cc2)c(=O)n1O", "note": "[Example 47, 3-(4-fluorobenzyl)-7-hydroxy-8-methyl-3,7-dihydro-6H-pyrrolo[2,3-c]-1,7-naphthyridin-6-one]", "EC50": 0.23}, {"smiles": "CCN1CCN(Cc2cn(Cc3ccc(F)cc3)c3cnc4c(=O)n(O)ccc4c23)CC1", "note": "[Example 8, 1-[(4-ethylpiperazin-1-yl)methyl]-3-(4-fluorobenzyl)-7-hydroxy-3,7-dihydro-6H-pyrrolo[2,3-c]-1,7-naphthyridin-6-one]", "EC50": 11}, {"smiles": "O=c1c2ncc3c(c(CNCc4ccc(C(F)(F)F)cc4)cn3Cc3ccc(F)cc3)c2ccn1O", "note": "[Example 43, 3-(4-fluorobenzyl)-7-hydroxy-1-({[4-(trifluoromethyl)benzyl]amino)methyl)-3,7-dihydro-6H-pyrrolo[2,3-c]-1,7-naphthyridin-6-one]", "EC50": 0.8}, {"smiles": "O=c1c2ncc3c(c(CN4CCCCC4CO)cn3Cc3ccc(F)cc3)c2ccn1O", "note": "(stereo not shown) [Example 49, 3-(4-fluorobenzyl)-7-hydroxy-1-{[2-(hydroxymethyl)piperidin-1-yl]methyl}-3,7-dihydro-6H-pyrrolo[2,3-c]-1,7-naphthyridin-6-one]", "EC50": 14}, {"smiles": "O=c1c2ncc3c(c(CNC4(CO)CCCC4)cn3Cc3ccc(F)cc3)c2ccn1O", "note": "[Example 39, 3-(4-fluorobenzyl)-7-hydroxy-1-({[1-(hydroxymethyl)cyclopentyl]amino}methyl)-3,7-dihydro-6H-pyrrolo[2,3-c]-1,7-naphthyridin-6-one]", "EC50": 4}, {"smiles": "O=c1c2ncc3c(c(COCCc4ccccn4)cn3Cc3ccc(F)cc3)c2ccn1O", "note": "[Example 33, 3-(4-fluorobenzyl)-7-hydroxy-1-[(2-pyridin-2-ylethoxy)methyl]-3,7-dihydro-6H-pyrrolo[2,3-c]-1,7-naphthyridin-6-one]", "EC50": 3}, {"smiles": "NC(=O)[C@@H]1CCCN1S(=O)(=O)c1cn(Cc2ccc(F)cc2)c2cnc3c(=O)n(O)ccc3c12", "note": "[Example 20, 1-{[3-(4-fluorobenzyl)-7-hydroxy-6-oxo-6,7-dihydro-3H-pyrrolo[2,3-c]-1,7-naphthyridin-1-yl]sulfonyl}-L-prolinamide]", "EC50": 390}, {"smiles": "CCCN(CCO)Cc1cn(Cc2ccc(F)cc2)c2cnc3c(=O)n(O)ccc3c12", "note": "[Example 48, 3-(4-fluorobenzyl)-7-hydroxy-1-{[(2-hydroxyethyl)(propyl)amino]methyl}-3,7-dihydro-6H-pyrrolo[2,3-c]-1,7-naphthyridin-6-one]", "EC50": 1.2}, {"smiles": "O=c1c2ncc3c(c(CN4CCC(O)CC4)cn3Cc3ccc(F)cc3)c2ccn1O", "note": "[Example 53, 3-(4-fluorobenzyl)-7-hydroxy-1-[(4-hydroxypiperidin-1-yl)methyl]-3,7-dihydro-6H-pyrrolo[2,3-c]-1,7-naphthyridin-6-one]", "EC50": 13}, {"smiles": "CCS(=O)(=O)N1CCN(Cc2cn(Cc3ccc(F)cc3)c3cnc4c(=O)n(O)ccc4c23)CC1", "note": "[Example 52, 1-{[4-(ethylsulfonyl)piperazin-1-yl]methyl}-3-(4-fluorobenzyl)-7-hydroxy-3,7-dihydro-6H-pyrrolo[2,3-c]-1,7-naphthyridin-6-one]", "EC50": 1.6}, {"smiles": "CN(C)Cc1cn(Cc2ccc(F)cc2)c2cnc3c(=O)n(O)ccc3c12", "note": "[Example 4, 1-[(dimethylamino)methyl]-3-(4-fluorobenzyl)-7-hydroxy-3,7-dihydro-6H-pyrrolo[2,3-c]-1,7-naphthyridin-6-one]", "EC50": 7}, {"smiles": "CN1CCN(Cc2cn(Cc3ccc(F)cc3)c3cnc4c(=O)n(O)ccc4c23)CC1", "note": "[Example 7, 3-(4-fluorobenzyl)-7-hydroxy-1-[(4-methylpiperazin-1-yl)methyl]-3,7-dihydro-6H-pyrrolo[2,3-c]-1 ,7-naphthyridin-6-one]", "EC50": 8}, {"smiles": "O=c1c2ncc3c(c(S(=O)(=O)NCC(F)(F)F)cn3Cc3ccc(F)cc3)c2ccn1O", "note": "[Example 24, 3-(4-fluorobenzyl)-7-hydroxy-6-oxo-N-(2,2,2-trifluoroethyl)-6,7-dihydro-3H-pyrrolo[2,3-c]-1,7-naphthyridine-1-sulfonamide]", "EC50": 22}, {"smiles": "O=c1c2ncc3c(c(COCCOC4CCCCC4)cn3Cc3ccc(F)cc3)c2ccn1O", "note": "[Example 34, 1-{[2-(cyclohexyloxy)ethoxy]methyl}-3-(4-fluorobenzyl)-7-hydroxy-3,7-dihydro-6H-pyrrolo[2,3-c]-1,7-naphthyridin-6-one]", "EC50": 2}, {"smiles": "CCCNCc1cn(Cc2ccc(F)cc2)c2cnc3c(=O)n(O)ccc3c12", "note": "[Example 40, 3-(4-fluorobenzyl)-7-hydroxy-1-[(propylamino)methyl] -3,7-dihydro-6H-pyrrolo[2,3-c]-1,7-naphthyridin-6-one]", "EC50": 2}, {"smiles": "CC(C)(C)OC(=O)N1CCC(COCc2cn(Cc3ccc(F)cc3)c3cnc4c(=O)n(O)ccc4c23)CC1", "note": "[Example 32, tert-butyl 4-({[3-(4-fluorobenzyl)-7-hydroxy-6-oxo-6,7-dihydro-3H-pyrrolo[2,3-c]-1,7-naphthyridin-1-yl]methoxy)methyl)pip eridine-1-carboxylate]", "EC50": 6}, {"smiles": "O=C1CN(Cc2cn(Cc3ccc(F)cc3)c3cnc4c(=O)n(O)ccc4c23)CCN1", "note": "[Example 6, 3-(4-fluorobenzyl)-7-hydroxy-1-[(3-oxopiperazin-1-yl)methyl]-3,7-dihydro-6H-pyrrolo[2,3-c]-1,7-naphthyridin-6-one]", "EC50": 12}, {"smiles": "NC(=O)[C@@H]1CCCN1Cc1cn(Cc2ccc(F)cc2)c2cnc3c(=O)n(O)ccc3c12", "note": "[Example 5, 1-{[3-(4-fluorobenzyl)-7-hydroxy-6-oxo-6,7-dihydro-3H-pyrrolo[2,3-c]-1,7-naphthyridin-1-yl]methyl}-L-prolinamide]", "EC50": 38}, {"smiles": "O=c1c2ncc3c(ccn3Cc3ccc(F)cc3)c2ccn1O", "note": "[Example 1, 3-(4-Fluorobenzyl)-7-hydroxy-3,7-dihydro-6H-pyrrolo[2,3-c]-1,7-naphthyridin-6-one]", "EC50": 0.4}, {"smiles": "CCN(Cc1cn(Cc2ccc(F)cc2)c2cnc3c(=O)n(O)ccc3c12)C1CCCCC1", "note": "[Example 14, 1-{[cyclohexyl(ethyl)amino]methyl}-3-(4-fluorobenzyl)-7-hydroxy-3,7-dihydro-6H-pyrrolo[2,3-c]-1,7-naphthyridin-6-one]", "EC50": 8}, {"smiles": "O=C(CN1CCN(Cc2cn(Cc3ccc(F)cc3)c3cnc4c(=O)n(O)ccc4c23)CC1)N1CCCC1", "note": "[Example 15, 3-(4-fluorobenzyl)-7-hydroxy-1-{[4-(2-oxo-2-pyrrolidin-1-ylethyl)piperazin-1-yl]methyl}-3,7-dihydro-6H-pyrrolo[2,3-c]-1,7-naphthyridin-6-one]", "EC50": 39}]}]}
